Assay results published in patent US20130109751A1, “LSD-1 ENZYME INHIBITORS FOR INDUCING OSTEOGENIC DIFFERENTIATION” ([…].R.L., priority 2011, published 2013).

Assays:
Type in all cases: cell-based, mice
W20-17 cells [1] = assay: Expression profile of osteogenic markers by real-time PCR; settings: osteogenic medium, 21 days' treatment, normalised to GAPDH, vs osteogenic medium alone
LSD-1 = target: T1, LSD-1 (Mus musculus, UniProt Q6ZQ88); assay: In vitro enzymatic activity assay of LSD-1 on W20-17 cells; settings: osteogenic medium supplemented with compound, vs osteogenic medium
T1 construct: endogenous in cells; host or cells: W20-17 cells
Protocol: To evaluate whether the activity of enzyme LSD-1 is inhibited during osteogenic differentiation, an in vitro enzymatic activity assay was performed on W20-17 cells to assess the percentage inhibition of LSD-1 activity under different conditions.

W20-17 cells [2] = assay: Alizarin Red staining of mineralised nodules under different growth conditions (minimum medium); settings: 21 days, absence of dexamethasone and ascorbic acid, glycerol 2-phosphate necessary
Protocol: On the 21st day, the presence of mineralised matrix was evaluated by histochemical staining with Alizarin Red. The cells were washed with PBS, fixed with a 10% formaldehyde solution, and incubated with a 2% solution of Alizarin Red (pH 4.1-4.3) for one hour.
To evaluate the minimum composition of a medium capable of inducing the formation of mineralised matrix, W20-17 cells were seeded in a 96-well plate and cultured for 21 days under different growth conditions.
At the end of the treatment the cells were stained with Alizarin Red, as described in example 2, to evaluate the formation of mineralised nodules.

Row | SMILES | expression of late marker osteocalcin (W20-17 cells [1]) | percentage inhibition of LSD-1 activity (LSD-1) | mineralisation (Alizarin Red, mineralised nodules) (W20-17 cells [2])
1 | NC1CC1c1ccc(NC(=O)C(Cc2ccccc2)NC(=O)OCc2ccccc2)cc1 (stereo not shown) [MC2580] | most marked | percentage inhibition increases | promotes mineralisation
2 | N[C@@H]1C[C@H]1c1ccccc1 (racemic) [tranylcypromine, reference compound] |  |  | promotes mineralisation
